Measurements: patent US20040234586A1, “Compositions and methods for enhancing nucleic acid transfer into cells” (priority 2001, published 2004)

Test system: Rat1 fibroblast cells
Test: Transfection efficiency with pCMV-LacZ DNA, β-galactosidase activity of cell lysate (ONPG assay)
Format: cell-based, rat
Details: for transfection efficiency alone or in combination with PEI, compared with PEI alone / transfection efficiency when combined to PEI as compared to PEI alone: PEI N/P=10; for transfection efficiency alone or in combination with PEI, compared with PEI alone: lipid 2 mg/ml; for transfection efficiency when combined to PEI as compared to PEI alone: 0.25 to 7.5 μl lipid per ug DNA
Description: Transfection complexes were prepared as described by Boussif et al. (Boussif et al., 1995).
Lipid was diluted in 100 μl of growth media without serum and antibiotics. The solutions were immediately homogenized and left at room temperature for 5-10 min. […] The combined material was vortexed and incubated at room temperature for 20 min before addition to the cells.
Rat1 fibroblast cells were maintained in modified Eagle medium (MEM) (Life Technologies) and VSMC cells were maintained in Dulbecco's modified Eagle medium (DMEM) (Life Technologies). Both cell lines were cultured in media containing 10% heat inactivated calf serum (Life Technologies), 1% penicillin-streptomycin, and L-glutamine in 10 cm tissue culture flasks at 37° C. in a humidified 5% CO2 atmosphere. Cells were grown to 80% confluency, detached with trypsin-EDTA and replated in 2 new flasks 18-24 h before transfection. Two to three hours before transfections, cells were again detached, and seeded at a density of 5×10^4 cells per well in 24-multiwell tissue culture plates.
At the time of transfection, cells were supplemented with 200-400 μl of fresh complete media containing 10% calf serum and antibiotics unless otherwise specified. Transfection solution was added to each well and the plates were incubated at 37° C. in a humidified atmosphere containing 5% CO2. After 6 h of transfection, the transfecting solution was removed, cells were washed once with appropriate cell culture medium and then covered with 1 ml of the same medium. Cells were maintained for an additional 36-48 h.
Following transfections with pCMV-LacZ DNA (36-48 h later), cells were washed twice with ice-cold 0.1 M phosphate buffered saline (PBS) and lysed with 250 μl lysis buffer (10 mM Tris-HCl pH 7.5, 1 mM EDTA, 100 mM NaCl, 5 mM MgCl2 and 1% Nonidet P40™ (Boehringer Mannheim)). Lysates were centrifuged 15 000×g at 4° C. for 5 min. The supernatant was collected and its protein concentration was determined using the BCA protein assay kit (PIERCE) using the microwell protocol according to the manufacturer's specifications. β-galactosidase assay was performed as described by Eustice et al. (Eustice et al., 1991) Briefly, β-galactosidase activity was measured in 240 μl assay mixture containing 80 mM sodium phosphate buffer, pH 7.3, 102 mM 2-mercaptoethanol, 9.0 mM MgCl2 and 8.0 mM ONPG (o-nitrophenyl-β-D-galactopyranoside, SIGMA). Samples, (1-40 μl) of each lysate were assayed in the reaction mixture at 37° C. for 30 min in 96-well plates. Absorbance was measured at 405 nm. E. coli β-galactosidase (Roche) was used to generate a standard curve.

Compound | transfection efficiency alone or in combination with PEI, compared with PEI alone (1 μg DNA) | transfection efficiency when combined to PEI as compared to PEI alone (1 μg DNA) | also measured
CCCCCCCC/C=C\CCCCCCCC(=O)OCC(CN(C)C)OC(=O)CCCCCCC/C=C\CCCCCCCC (stereo not drawn) [1,2-dioleoyl-3-dimethylammonium-propane] | did not display, alone or in combination with PEI, transfection efficiencies that were better or even equal to that obtained with PEI alone |  | 
CCCCCCCC/C=C\CCCCCCCC(=O)OCC(C[N+](C)(C)C)OC(=O)CCCCCCC/C=C\CCCCCCCC (stereo not drawn) [1,2-dioleoyl-3-trimethylammonium-propane] | did not display, alone or in combination with PEI, transfection efficiencies that were better or even equal to that obtained with PEI alone |  | 
CCCCCCCC/C=C\CCCCCCCC(=O)OC[C@@H](COP(=O)(OCC)OCC[N+](C)(C)C)OC(=O)CCCCCCC/C=C\CCCCCCCC (stereo partly drawn) [1,2-dioleoyl-sn-glycero-3-ethylphosphocholine] | did not display, alone or in combination with PEI, transfection efficiencies that were better or even equal to that obtained with PEI alone |  | 
CCCCCCCC/C=C\CCCCCCCC(=O)OC[C@H](COP(=O)([O-])OCC[N+](C)(C)C)OC(=O)CCCCCCC/C=C\CCCCCCCC [DOPC, 1,2-Dioleoly-sn-Glycero-3-Phosphocholine] |  | enhance transfection efficiency | 
CCCCCCCC/C=C\CCCCCCCC(=O)OC[C@H](COP(=O)(O)OCCN)OC(=O)CCCCCCC/C=C\CCCCCCCC [DOPE, 1,2-Dioleoyl-sn-Glycero-3-Phosphoethanolamine] |  | enhance transfection efficiency | β-galactosidase activity when combined to DNA alone (0.25 to 7.5 μl per ug DNA, without PEI): no β-galactosidase activity; increase of transfection efficiency over PEI alone (combined with PEI (N/P=10), 1 μg DNA): ≤ 26 fold
CC(C)CCCC(C)CCCC(C)CCCC(C)CC(=O)OC[C@H](COP(=O)(O)OCCN)OC(=O)CC(C)CCCC(C)CCCC(C)CCCC(C)C (stereo partly drawn) [DPPE, 1,2-Diphytanoyl-sn-Glycero-3-Phosphoethanolamine] |  | enhance transfection efficiency | 
L-α-phosphatidylcholine | did not display, alone or in combination with PEI, transfection efficiencies that were better or even equal to that obtained with PEI alone |  | 
